The test has as its system MV-4-11 cells. The experiment in a line: Gene expression microarray analysis (Affymetrix PrimeView) and GSEA. The format is cell-based, human. The arrangement: RFU PODN (11730768_x_at) / Fold change /veh PODN (11730768_x_at) / RFU LINC00158 (11744669_a_at) / Fold change /veh LINC00158 (11744669_a_at) / RFU DUSP10 (11751237_a_at) / Fold change /veh DUSP10 (11751237_a_at) / RFU ID3 (11757404_x_at) / Fold change /veh ID3 (11757404_x_at) / RFU PLEKHG5 (11737974_s_at) / Fold change /veh PLEKHG5 (11737974_s_at) / RFU LRRC4B (11730491_at) / Fold change /veh LRRC4B (11730491_at) / RFU GIMAP4 (11747438_a_at) / Fold change /veh GIMAP4 (11747438_a_at) / RFU KRT8 (11758183_x_at) / Fold change /veh KRT8 (11758183_x_at) / RFU CNN1 (11734310_a_at) / Fold change /veh CNN1 (11734310_a_at) / RFU VPS37D (11726825_at) / Fold change /veh VPS37D (11726825_at) / RFU C10orf10 (11716522_x_at) / Fold change /veh C10orf10 (11716522_x_at) / RFU KIR2DL2 /// KIR2DL4 /// KIR2DL5A /// KIR2DL5B /// KIR2DS1 /// KIR2DS2 /// KIR2DS3 /// KIR2DS4 /// KIR3DL3 /// KIR3DL3 /// KIR3DS1 (11738374_at) / Fold change /veh KIR2DL2 /// KIR2DL4 /// KIR2DL5A /// KIR2DL5B /// KIR2DS1 /// KIR2DS2 /// KIR2DS3 /// KIR2DS4 /// KIR3DL3 /// KIR3DL3 /// KIR3DS1 (11738374_at) / RFU C1QL1 (11718748_at) / Fold change /veh C1QL1 (11718748_at) / RFU TMPRSS4 (11747572_a_at) / Fold change /veh TMPRSS4 (11747572_a_at) / RFU HAMP (11756126_x_at) / Fold change /veh HAMP (11756126_x_at) / RFU RNFT2 (11725882_a_at) / Fold change /veh RNFT2 (11725882_a_at) / RFU NR4A2 (11747474_a_at) / Fold change /veh NR4A2 (11747474_a_at) / RFU ABCC12 (11746883_a_at) / Fold change /veh ABCC12 (11746883_a_at) / RFU TMEM136 (11760407_x_at) / Fold change /veh TMEM136 (11760407_x_at) / RFU CLDN22 /// WWC2 (11732394_at) / Fold change /veh CLDN22 /// WWC2 (11732394_at) / RFU HLA-DPB1 (11760878_x_at) / Fold change /veh HLA-DPB1 (11760878_x_at) / RFU SPINT1 (11716480_a_at) / Fold change /veh SPINT1 (11716480_a_at) / RFU GAP43 (11754022_s_at) / Fold change /veh GAP43 (11754022_s_at) / RFU A4GNT (11735810_at) / Fold change /veh A4GNT (11735810_at) / RFU PRB3 (11715151_x_at) / Fold change /veh PRB3 (11715151_x_at) / RFU TUBB4B (11761932_at) / Fold change /veh TUBB4B (11761932_at) / RFU CAPN14 (11732068_a_at) / Fold change /veh CAPN14 (11732068_a_at) / RFU TMCC2 (11721928_a_at) / Fold change /veh TMCC2 (11721928_a_at) / RFU IRGQ (11745062_a_at) / Fold change /veh IRGQ (11745062_a_at) / RFU FAM174B (11720279_a_at) / Fold change /veh FAM174B (11720279_a_at) / RFU TMPRSS4 (11748680_a_at) / Fold change /veh TMPRSS4 (11748680_a_at) / RFU FAM212B (11763350_a_at) / Fold change /veh FAM212B (11763350_a_at) / RFU PLEKHG5 (11743358_a_at) / Fold change /veh PLEKHG5 (11743358_a_at) / RFU ZSCAN30 (11745921_a_at) / Fold change /veh ZSCAN30 (11745921_a_at) / RFU CMKLR1 (11741424_a_at) / Fold change /veh CMKLR1 (11741424_a_at) / RFU LOC101060620 /// MAPK8IP1 (11723275_at) / Fold change /veh LOC101060620 /// MAPK8IP1 (11723275_at) / RFU SPTSSB (11747773_x_at) / Fold change /veh SPTSSB (11747773_x_at) / RFU PRSS12 (11739890_at) / Fold change /veh PRSS12 (11739890_at) / RFU BIN1 (11741810_x_at) / Fold change /veh BIN1 (11741810_x_at) / RFU WNT11 (11732464_a_at) / Fold change /veh WNT11 (11732464_a_at) / RFU C10orf10 (11716521_a_at) / Fold change /veh C10orf10 (11716521_a_at) / RFU C5orf56 (11738089_at) / Fold change /veh C5orf56 (11738089_at) / RFU CYB561 (11721691_x_at) / Fold change /veh CYB561 (11721691_x_at) / RFU ANKRD19P (11752326_a_at) / Fold change /veh ANKRD19P (11752326_a_at) / RFU OR2T12 /// OR2T33 /// OR2T8 (11738714_s_at) / Fold change /veh OR2T12 /// OR2T33 /// OR2T8 (11738714_s_at) / RFU VCAN (11748164_a_at) / Fold change /veh VCAN (11748164_a_at) / RFU JSRP1 (11732532_at) / Fold change /veh JSRP1 (11732532_at) / RFU KRTAP10-11 (11738290_x_at) / Fold change /veh KRTAP10-11 (11738290_x_at) / RFU MYO3A (11730013_a_at) / Fold change /veh MYO3A (11730013_a_at) / RFU EBF3 (11725865_a_at) / Fold change /veh EBF3 (11725865_a_at) / RFU CAMK2N1 (11719241_x_at) / Fold change /veh CAMK2N1 (11719241_x_at) / RFU C5orf56 (11738088_a_at) / Fold change /veh C5orf56 (11738088_a_at) / RFU OLFML3 (11715873_a_at) / Fold change /veh OLFML3 (11715873_a_at) / RFU LOC100653217 /// NTM (11731650_a_at) / Fold change /veh LOC100653217 /// NTM (11731650_a_at) / RFU MAPK11 (11762145_a_at) / Fold change /veh MAPK11 (11762145_a_at) / RFU FIZ1 (11724087_x_at) / Fold change /veh FIZ1 (11724087_x_at) / RFU OASL (11726364_x_at) / Fold change /veh OASL (11726364_x_at) / RFU SOX15 (11748057_x_at) / Fold change /veh SOX15 (11748057_x_at) / RFU CD79A (11719716_a_at) / Fold change /veh CD79A (11719716_a_at) / RFU HIST1H1D (11736915_at) / Fold change /veh HIST1H1D (11736915_at) / RFU CASKIN2 (11723855_a_at) / Fold change /veh CASKIN2 (11723855_a_at) / RFU LOC730098 (11760151_x_at) / Fold change /veh LOC730098 (11760151_x_at) / RFU OR4N2 (11742367_at) / Fold change /veh OR4N2 (11742367_at) / RFU PRRT2 (11749266_a_at) / Fold change /veh PRRT2 (11749266_a_at) / RFU SNX32 (11753110_a_at) / Fold change /veh SNX32 (11753110_a_at) / RFU CDHR5 (11726645_a_at) / Fold change /veh CDHR5 (11726645_a_at) / RFU RCAN1 (11760418_a_at) / Fold change /veh RCAN1 (11760418_a_at) / RFU FAM167A (11723789_a_at) / Fold change /veh FAM167A (11723789_a_at) / RFU FAM26E (11764081_at) / Fold change /veh FAM26E (11764081_at) / RFU ISYNA1 (11749810_s_at) / Fold change /veh ISYNA1 (11749810_s_at) / RFU ACY1 (11761880_at) / Fold change /veh ACY1 (11761880_at) / RFU 11764098_at / Fold change /veh 11764098_at / RFU SAMD14 (11745864_x_at) / Fold change /veh SAMD14 (11745864_x_at) / RFU NPB (11741838_a_at) / Fold change /veh NPB (11741838_a_at) / RFU TMPRSS6 (11731388_a_at) / Fold change /veh TMPRSS6 (11731388_a_at) / RFU KRTAP10-2 (11738614_at) / Fold change /veh KRTAP10-2 (11738614_at) / RFU ARHGAP8 /// PRR5-ARHGAP8 (11727945_x_at) / Fold change /veh ARHGAP8 /// PRR5-ARHGAP8 (11727945_x_at) / RFU KRTAP5-7 /// NADSYN1 (11734609_at) / Fold change /veh KRTAP5-7 /// NADSYN1 (11734609_at) / RFU RASL12 (11751679_a_at) / Fold change /veh RASL12 (11751679_a_at) / RFU CDKN2B (11736163_a_at) / Fold change /veh CDKN2B (11736163_a_at) / RFU PRF1 (11729649_at) / Fold change /veh PRF1 (11729649_at) / RFU, ZNF638 /// ZNF638-IT1 / Fold change vs veh, ZNF638 /// ZNF638-IT1 / RFU, PANK3 / Fold change vs veh, PANK3 / RFU, SH3YL1 / Fold change vs veh, SH3YL1 / RFU, ZEB2 / Fold change vs veh, ZEB2 / RFU, NRIP1 / Fold change vs veh, NRIP1 / RFU, PTTG1IP / Fold change vs veh, PTTG1IP / RFU, CAPN2 / Fold change vs veh, CAPN2 / RFU, MED14 / Fold change vs veh, MED14 / RFU, SNORA58 / Fold change vs veh, SNORA58 / RFU, C1orf63 / Fold change vs veh, C1orf63 / RFU, LRRFIP1 / Fold change vs veh, LRRFIP1 / RFU, NDUFAF7 / Fold change vs veh, NDUFAF7 / RFU, SLC12A2 / Fold change vs veh, SLC12A2 / RFU, IBTK / Fold change vs veh, IBTK / RFU, ESF1 / Fold change vs veh, ESF1 / Fold change vs veh, TMEM50B / RFU, TAOK1 / Fold change vs veh, TAOK1 / RFU, ACBD3 / Fold change vs veh, ACBD3 / RFU, TMA16 / Fold change vs veh, TMA16 / RFU, RWDD3 / Fold change vs veh, RWDD3 / RFU, BCAT1 / Fold change vs veh, BCAT1 / RFU, EDEM3 / Fold change vs veh, EDEM3 / RFU, TMEM33 / Fold change vs veh, TMEM33 / RFU, WDR75 / Fold change vs veh, WDR75 / RFU, AHCTF1 / Fold change vs veh, AHCTF1 / RFU, TFRC / Fold change vs veh, TFRC / RFU, ZDHHC17 / Fold change vs veh, ZDHHC17 / RFU, NOM1 / Fold change vs veh, NOM1 / RFU, ARL8B / Fold change vs veh, ARL8B / RFU, ZBTB11 / Fold change vs veh, ZBTB11 / RFU, TAMM41 / Fold change vs veh, TAMM41 / RFU, KIAA1704 /// LOC100996395 / Fold change vs veh, KIAA1704 /// LOC100996395 / RFU, ING1 / Fold change vs veh, ING1 / RFU, TRMT61B / Fold change vs veh, TRMT61B / RFU, FUBP3 / Fold change vs veh, FUBP3 / RFU, TP53 / Fold change vs veh, TP53 / RFU, TNKS2 / Fold change vs veh, TNKS2 / RFU, ZFP14 / Fold change vs veh, ZFP14 / RFU, ACTR2 / Fold change vs veh, ACTR2 / RFU, PPP3R1 / Fold change vs veh, PPP3R1 / RFU, PIK3R1 / Fold change vs veh, PIK3R1 / RFU, HNRNPA1 / Fold change vs veh, HNRNPA1 / RFU, RNF170 / Fold change vs veh, RNF170 / RFU, ZNF28 / Fold change vs veh, ZNF28 / RFU, RNGTT / Fold change vs veh, RNGTT / RFU, OGT / Fold change vs veh, OGT / RFU, BRD1 / Fold change vs veh, BRD1 / RFU, MARS / Fold change vs veh, MARS / RFU, ZNF655 / Fold change vs veh, ZNF655 / RFU, FAHD1 / Fold change vs veh, FAHD1 / RFU, BDP1 / Fold change vs veh, BDP1 / RFU, LRRCC1 / Fold change vs veh, LRRCC1 / RFU, ARID1A / Fold change vs veh, ARID1A / RFU, ZNF146 / Fold change vs veh, ZNF146 / RFU, ZNF330 / Fold change vs veh, ZNF330 / RFU, GPN3 / Fold change vs veh, GPN3 / RFU, C9orf123 / Fold change vs veh, C9orf123 / RFU, N4BP2L2 / Fold change vs veh, N4BP2L2 / RFU, ARFIP1 / Fold change vs veh, ARFIP1 / RFU, FAM179B / Fold change vs veh, FAM179B / RFU, BCL10 / Fold change vs veh, BCL10 / RFU, UHRF1BP1L / Fold change vs veh, UHRF1BP1L / RFU, BET1 / Fold change vs veh, BET1 / RFU, CNOT2 / Fold change vs veh, CNOT2 / RFU, ZNF268 / Fold change vs veh, ZNF268 / Fold change vs veh, ZNF507 / RFU, DGCR2 / Fold change vs veh, DGCR2 / RFU, WDSUB1 / Fold change vs veh, WDSUB1 / Fold change vs veh, HSP90B1 /// MIR3652 / RFU, ADSS / Fold change vs veh, ADSS / RFU, GK / Fold change vs veh, GK / RFU, ZNF148 / Fold change vs veh, ZNF148 / RFU, TAF9 / Fold change vs veh, TAF9 / RFU, SLC1A5 / Fold change vs veh, SLC1A5 / RFU, SLMO2 / Fold change vs veh, SLMO2 / RFU, ABCC4 / Fold change vs veh, ABCC4 / RFU, LOC101060439 /// RAP1B / Fold change vs veh, LOC101060439 /// RAP1B / RFU, RFX7 / Fold change vs veh, RFX7 / RFU, GTPBP10 / Fold change vs veh, GTPBP10 / RFU, CNEP1R1 / Fold change vs veh, CNEP1R1 / RFU, BIVM-ERCC5 /// ERCC5 / Fold change vs veh, BIVM-ERCC5 /// ERCC5 / RFU, ILF3 / Fold change vs veh, ILF3 / RFU 11762660_at / Fold change /veh 11762660_at / RFU VCAN (11757783_s_at) / Fold change /veh VCAN (11757783_s_at) / RFU DDX43 (11728927_at) / Fold change /veh DDX43 (11728927_at) / RFU KRT8 (11758188_x_at) / Fold change /veh KRT8 (11758188_x_at) / RFU NKD1 (11759106_at) / Fold change /veh NKD1 (11759106_at) / RFU SRD5A1 (11742802_a_at) / Fold change /veh SRD5A1 (11742802_a_at) / RFU TPSAB1 /// TPSB2 (11721975_s_at) / Fold change /veh TPSAB1 /// TPSB2 (11721975_s_at) / RFU GSTM3 (11746129_a_at) / Fold change /veh GSTM3 (11746129_a_at) / RFU IL23R (11737362_x_at) / Fold change /veh IL23R (11737362_x_at) / RFU TMEM51 (11727254_a_at) / Fold change /veh TMEM51 (11727254_a_at) / RFU PIWIL2 (11732686_x_at) / Fold change /veh PIWIL2 (11732686_x_at) / RFU ORM1 (11744905_x_at) / Fold change /veh ORM1 (11744905_x_at) / RFU CCDC152 (11743942_at) / Fold change /veh CCDC152 (11743942_at) / RFU ECM1 (11717891_a_at) / Fold change /veh ECM1 (11717891_a_at) / RFU IL23R (11748794_a_at) / Fold change /veh IL23R (11748794_a_at) / RFU TNFAIP8L3 (11732012_x_at) / Fold change /veh TNFAIP8L3 (11732012_x_at) / RFU MBOAT4 (11741988_at) / Fold change /veh MBOAT4 (11741988_at) / RFU 11764193_at / Fold change /veh 11764193_at / RFU TMEM53 (11763286_at) / Fold change /veh TMEM53 (11763286_at) / RFU MAGEB2 (11727129_at) / Fold change /veh MAGEB2 (11727129_at) / RFU TMEM200A (11744735_a_at) / Fold change /veh TMEM200A (11744735_a_at) / RFU CCDC152 (11751479_a_at) / Fold change /veh CCDC152 (11751479_a_at) / RFU FAM211A (11726209_a_at) / Fold change /veh FAM211A (11726209_a_at) / RFU RGS16 (11746705_a_at) / Fold change /veh RGS16 (11746705_a_at) / RFU VCAN (11755009_s_at) / Fold change /veh VCAN (11755009_s_at) / RFU RHOB (11743442_s_at) / Fold change /veh RHOB (11743442_s_at) / RFU RGS16 (11720943_a_at) / Fold change /veh RGS16 (11720943_a_at) / RFU RGS16 (11720944_at) / Fold change /veh RGS16 (11720944_at) / RFU, VPS4B / Fold change vs veh, VPS4B / RFU, CREB1 / Fold change vs veh, CREB1 / RFU, DNAJC13 / Fold change vs veh, DNAJC13 / RFU, GNAQ / Fold change vs veh, GNAQ / RFU, CDK5R1 / Fold change vs veh, CDK5R1 / RFU, ZRANB3 / Fold change vs veh, ZRANB3 / RFU, CUL4A / Fold change vs veh, CUL4A / RFU, CCNY / Fold change vs veh, CCNY / RFU, UFL1 / Fold change vs veh, UFL1 / RFU, COG3 / Fold change vs veh, COG3 / RFU, DIAPH2 / Fold change vs veh, DIAPH2 / RFU, SKA2 / Fold change vs veh, SKA2 / RFU, AFF3 / Fold change vs veh, AFF3 / RFU, LMF1 / Fold change vs veh, LMF1 / RFU, IPO11 / Fold change vs veh, IPO11 / RFU, DFFB / Fold change vs veh, DFFB / RFU, FOXP1 / Fold change vs veh, FOXP1 / RFU, CARD8 / Fold change vs veh, CARD8 / RFU, STRN3 / Fold change vs veh, STRN3 / RFU, ADK / Fold change vs veh, ADK / RFU, RASSF2 / Fold change vs veh, RASSF2 / RFU, WIPF1 / Fold change vs veh, WIPF1 / RFU, LARP1B / Fold change vs veh, LARP1B / RFU, RASA1 / Fold change vs veh, RASA1 / RFU, RB1 / Fold change vs veh, RB1 / RFU, PPFIA1 / Fold change vs veh, PPFIA1 / RFU, MAT2A / Fold change vs veh, MAT2A / RFU, CCT5 / Fold change vs veh, CCT5 / RFU, WDR92 / Fold change vs veh, WDR92 / RFU, CUX1 / Fold change vs veh, CUX1 / RFU, TTC7A / Fold change vs veh, TTC7A / RFU, TMEM135 / Fold change vs veh, TMEM135 / RFU, DEPTOR / Fold change vs veh, DEPTOR / RFU, CPM / Fold change vs veh, CPM / RFU, DNAJB6 / Fold change vs veh, DNAJB6 / RFU, CACNA2D3 / Fold change vs veh, CACNA2D3 / RFU, DTX4 / Fold change vs veh, DTX4 / RFU, TFCP2 / Fold change vs veh, TFCP2 / RFU, GMCL1 /// GMCL1P1 / Fold change vs veh, GMCL1 /// GMCL1P1 / RFU, AEBP2 / Fold change vs veh, AEBP2 / RFU, SNHG1 /// SNORD22 /// SNORD25 /// SNORD26 /// SNORD27 /// SNORD28 /// SNORD29 /// SNORD31 / Fold change vs veh, SNHG1 /// SNORD22 /// SNORD25 /// SNORD26 /// SNORD27 /// SNORD28 /// SNORD29 /// SNORD31 / Fold change (Aza/veh), C12orf56 (ProbeSet 11735607_a_at) / Fold change (ACY-1035/veh), C12orf56 (ProbeSet 11735607_a_at) / Fold change (Aza/veh), FGFR1OP (ProbeSet 11751329_s_at) / Fold change (ACY-1035/veh), FGFR1OP (ProbeSet 11751329_s_at) / Fold change (Aza/veh), VPS36 (ProbeSet 11739960_a_at) / Fold change (ACY-1035/veh), VPS36 (ProbeSet 11739960_a_at) / RFU SYPL1 (11715823_x_at) / Fold change /veh SYPL1 (11715823_x_at) / RFU IGFBP7 (11715501_s_at) / Fold change /veh IGFBP7 (11715501_s_at) / RFU REEP3 (11722064_at) / Fold change /veh REEP3 (11722064_at) / RFU IGLL1 (11728026_x_at) / Fold change /veh IGLL1 (11728026_x_at): dose or concentration left out as unconfirmed. The note with it: ProbeSet 11763166_a_at; LIST B.

On to `Nc1ncn([C@@H]2O[C@H](CO)[C@@H](O)[C@H]2O)c(=O)n1` [azacitidine], for which the “Fold change vs veh, MARS” value is 0.85.

Source of the values: paper PMC5218480 (PLoS ONE, 2017).
